Data on three compounds can be found in patent publication US5110976A, “Insecticidal composition comprising more than one active ingredient” (priority 1985, dated 1992).

For one data set, the system named is Musca domestica. The following applies: cited from earlier work.
The subject of another data set is Phaedon cochleariae. The settings on record: cited from earlier work.
Data set [1] deals with L. decemlineata. Description: 5 EC formulation sprayed on glass plates (Table 9). Type of data set: in vivo, Colorado beetle (L. decemlineata), imagos. The following applies: 48 hours. Here is the method: (§1) From a 5 EC formulation according to Example 17 50-, 100-, 200-, 400-, 800- and 1600-fold diluted emulsions are prepared by diluting with water. 0.5 ml of the emulsions are sprayed onto glass plates whereupon after drying 10 Colorado beetles (L. decemlineata) imagos are placed on each glass plate and the insects are covered. The tests are carried out with 6 doses by carrying out 3 parallels for each dose. The killed insects are counted after 48 hours and the percental mortality rate is calculated.

The subject of data set [2] is Hyphantria cunea. Description: Topical test on fall webworm (Table 18). Format: in vivo, fall wetworm (Hyphantria cunea), L7-L8 larvae. Here is the method:
The active ingredients are dissolved in 2-ethoxy-ethanol and the solutions are applied in the form of 0.2 μl droplets onto the back of fall wetworm (Hyphantria cunea) of L7 -L8 larvae stage. The treated worms are placed on strawberry leaves in Petri-dishes. The test is carried out by using […], 2 parallels and 10 insects for each dose. The killed worms are counted after 24 hours and the percental mortality rate is calculated.

Data set [3] relates to Acanthoscelides obtectus. Description: 5 EC formulation, insecticidal effect on bean weevil (Table 10). Format: in vivo, bean weevil (Acanthoscelides obtectus), imagos. The settings on record: 24 hours. The procedure:
as §1
The insecticidal effect is tested on been weevil (Acanthoscelides obtectus) imagos. The killed insects are counted after 24 hours and the percental mortality rate is calculated.

Data set [4] has as its system Hyphantria cunea. Description: Topical test on fall webworm (Table 8). Type of data set: in vivo, L7-L8 larvae. The following applies: 24 h. The procedure: The active ingredients are dissolved in 2-ethoxyethanol and the solutions are applied in the form of 0.2 μl droplets onto the back of fall webworm (Hyphantria cunea) of L7 -L8 larvae stage. The treated worms are placed on strawberry leaves in Petri-dishes. The test is carried out by using 5 doses; 2 parallels and 10 insects for each dose.

In the next data set the test system is Tetranychus urticae. Description: Potter Tower spray on mite-infested leaves (Table 19). The following applies: mortality after 24 hours; 1440 min. Format: in vivo, mites (Tetranychus urticae). The procedure:
Leaves already infested with mites (Tetranychus urticae) were sprayed under Potter Tower. Mortality after 24 hours on the treated leaves was compared with the control.

The subject of data set [5] is Leptinotarsa decemlineata. Description: Topical test on potato beetle (Table 6). The settings on record: 24 h. Format: in vivo, imagos. The procedure:
The active ingredients are dissolved in 2-ethoxyethanol and […] of the solutions are applied onto the abdominal sterna of potato beetle (Leptinotarsa decemlineata) imagos. The treatments are carried out by using two parallels and 10 insects for each dose. […]

The subject of data set [6] is Acanthoscelides obtectus. Description: 5 EC formulations sprayed on glass plates (Table 21). Format: in vivo, bean weevil (Acanthoscelides obtectus), imagos. The following applies: 5 EC formulation, 24 hours, 1440 min. The procedure: (§2) The 5 EC formulations prepared according to Example 42 are diluted 50x, 100x, 200x, 400x, 800x and 1600x with water and 0.5 ml doses are sprayed onto glass plates. After drying 10 L. decemlineata imagos are placed on each glass plate and the insects are covered with Petri-dishes. The tests are carried out by using 6 doses and 3 parallels for each dose. The killed insects are counted after 48 hours.
Glass plates are sprayed with 5 EC formulations prepared according to Example 42 in an analogous manner to Example 52. After drying 10 bean weevil (Acanthoscelides obtectus) imagos are placed on each plate and the insects are covered with Petri-dishes. The killed insects are counted after 24 hours. The test is carried out with 6 doses by using 3 parallels for each dose.

The test system of data set [7] is L. decemlineata. Description: 5 EC formulations sprayed on glass plates (Table 20). The settings on record: 5 EC formulation, 48 hours. Type of data set: in vivo, imagos. Here is the method:
as §2

The next data set concerns Colorado potato beetle. Description: Topical test on Colorado potato beetle (Table 14). Format: in vivo, Colorado potato beetle (Leptinotersa decemlineata), imago. Here is the method:
In Table 14 the activity on Colorado potato beetle is shown.
The test materials are dissolved in 2-ethoxyethanol (Cellosolve). One 0.3 μl drop of the solution is applied to the abdominal sterna of the imago. The treatment is carried out by using 2 parallels and 10 insects for each dose. […]

Where [8] appears, read: mixture activity lower than the calculated value.

As for `CC1(C)[C@H](C=C(Cl)Cl)[C@H]1C(=O)OC(C#N)c1cccc(Oc2ccccc2)c1` (mixture of isomers) [mixture of both tested isomers], the rate of antagonism in the data set with Musca domestica (setting [8]) was 1.42; in the data set with Phaedon cochleariae (setting [8]), 1.46.
Turning to `CC1(C)[C@H](C=C(Cl)Cl)[C@H]1C(=O)O[C@@H](C#N)c1cccc(Oc2ccccc2)c1` [1RtransR], the entries for the “activity related to bioresmetrine (100)” value with Musca domestica (bioresmetrine = 100) and with Phaedon cochleariae (bioresmetrine = 100) were 81 and 110, respectively.
For orientation: mortality means the share of the test organisms that died. Low values mean more survivors, high ones fewer survivors. With `CC1(C)C(C=C(Cl)Cl)C1C(=O)OC(C#N)c1cccc(Oc2ccccc2)c1` (centres unmarked) [cypermethrin], the Mortality % in the data set with L. decemlineata [1] (dilution 50x) was 83%; with L. decemlineata [1] (dilution 100x), 67%; in the data set with L. decemlineata [1] (dilution 200x), 50%; with L. decemlineata [1] (dilution 400x), 33%; in the data set on L. decemlineata [1] (dilution 800x), 17%; in the data set with L. decemlineata [1] (dilution 1600x), 0%. In addition, the Mortality % in the data set on Acanthoscelides obtectus [3] (dilution 50x) is 60%; in the data set with Acanthoscelides obtectus [3] (dilution 100x), 43%; in the data set on Acanthoscelides obtectus [3] (dilution 200x), 20%; in the data set with Acanthoscelides obtectus [3] (dilution 400x), 10%; with Acanthoscelides obtectus [3] (dilution 800x), 3%; in the data set on Acanthoscelides obtectus [3] (dilution 1600x), 0%. In addition, the Mortality % with Acanthoscelides obtectus [6] (dilution 50x) was 60%; in the data set on Acanthoscelides obtectus [6] (dilution 100x) it was 45%; in the data set on Acanthoscelides obtectus [6] (dilution 200x), 20%; with Acanthoscelides obtectus [6] (dilution 400x), 10%; in the data set on Acanthoscelides obtectus [6] (dilution 800x), 3%; with Acanthoscelides obtectus [6] (dilution 1600x), 0%. Further, the Mortality % amounted to 83% in the data set with L. decemlineata [7] (dilution 50x, 2880 min); 67% with L. decemlineata [7] (dilution 100x, 2880 min); 50% in the data set on L. decemlineata [7] (dilution 200x, 2880 min); 33% with L. decemlineata [7] (dilution 400x, 2880 min); 17% in the data set with L. decemlineata [7] (dilution 800x, 2880 min); 0% with L. decemlineata [7] (dilution 1600x). Besides, the “24 hours' mortality” value in the data set on Hyphantria cunea [2] (0.023 (μg/disc), 1440 min) came out at 0%; in the data set with Hyphantria cunea [2] (0.047 (μg/disc), 1440 min), 10%; in the data set on Hyphantria cunea [2] (0.094 (μg/disc), 1440 min), 25%; with Hyphantria cunea [2] (0.188 (μg/disc), 1440 min) it was 50%; in the data set on Hyphantria cunea [2] (0.375 (μg/disc)) it was 75%. The compound also returned a mortality at 0.023 µg/larva with Hyphantria cunea [4] (0.023 μg/larvae) of 0%. Besides, the mortality at 0.047 µg/larva with Hyphantria cunea [4] (0.047 μg/larvae) was 0%. The mortality at 0.094 µg/larva in the data set with Hyphantria cunea [4] (0.094 μg/larvae) was 25%. In addition, the mortality at 0.188 µg/larva with Hyphantria cunea [4] (0.188 μg/larvae) was 50%. In the data set with Hyphantria cunea [4] (0.375 μg/larvae), this compound yielded a mortality at 0.375 µg/larva of 75%. The “approx. LD50” value in the data set on Tetranychus urticae is approximately 0.120 ppm. The same compound yielded a mortality at 0.05 µg/insect in [5] (0.05 μg/insect) of 0%. In [5] (0.10 μg/insect), the mortality at 0.1 µg/insect came out at 20%. This compound also came in with a mortality at 0.2 µg/insect in data set [5] (0.20 μg/insect) of 45%. In addition, the mortality at 0.4 µg/insect in data set [5] (0.40 μg/insect) was 75%. The “24 hours' mortality %” value was determined as 0% in the data set on Colorado potato beetle (0.05 μg/beetle), 20% with Colorado potato beetle (0.10 μg/beetle), 45% with Colorado potato beetle (0.20 μg/beetle) and 75% in the data set with Colorado potato beetle (0.40 μg/beetle).
